Measured values taken from publication PMC8607797 (Nature chemical biology, 2021).

Columns and labels:
Format in all cases: cell-based
Ephx1 = molecular target: T1, Ephx1 (Mus musculus, UniProt Q9D379); assay: live-cell chemoproteomic competition of probe […]
T1 sequence (Q9D379 1-455): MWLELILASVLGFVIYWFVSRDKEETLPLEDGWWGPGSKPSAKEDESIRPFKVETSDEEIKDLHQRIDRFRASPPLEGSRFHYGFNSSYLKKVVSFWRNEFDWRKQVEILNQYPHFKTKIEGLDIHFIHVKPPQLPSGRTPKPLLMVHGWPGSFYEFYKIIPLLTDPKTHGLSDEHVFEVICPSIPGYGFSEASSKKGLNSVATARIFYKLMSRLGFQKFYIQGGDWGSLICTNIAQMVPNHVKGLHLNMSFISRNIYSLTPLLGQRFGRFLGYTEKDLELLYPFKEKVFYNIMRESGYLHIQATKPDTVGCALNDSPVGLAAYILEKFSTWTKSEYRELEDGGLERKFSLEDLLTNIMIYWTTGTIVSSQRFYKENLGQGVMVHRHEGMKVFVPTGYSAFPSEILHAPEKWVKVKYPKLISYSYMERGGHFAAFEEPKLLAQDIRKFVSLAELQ

Cav1 = molecular target: T2, Cav1 (Mus musculus, UniProt P49817); assay: live-cell chemoproteomic competition of probe […]
T2 sequence (P49817 2-178): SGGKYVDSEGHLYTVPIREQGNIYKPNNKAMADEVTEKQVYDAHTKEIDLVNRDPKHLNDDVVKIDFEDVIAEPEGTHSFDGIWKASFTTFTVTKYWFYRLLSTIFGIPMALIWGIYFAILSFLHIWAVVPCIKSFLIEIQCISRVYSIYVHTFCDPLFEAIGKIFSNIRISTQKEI

Tmem97 (σ2 receptor) = molecular target: T3, Tmem97 (σ2 receptor) (Mus musculus, UniProt Q8VD00); assay: live-cell competition of probe […] labeling, in-gel fluorescence
T3 sequence (Q8VD00 1-176): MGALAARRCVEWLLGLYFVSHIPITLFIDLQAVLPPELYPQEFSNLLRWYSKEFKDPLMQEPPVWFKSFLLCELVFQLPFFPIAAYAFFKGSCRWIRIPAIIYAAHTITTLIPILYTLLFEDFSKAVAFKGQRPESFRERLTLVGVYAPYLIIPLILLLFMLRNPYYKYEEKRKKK

live-cell competition of probe 2 labeling, in-gel fluorescence (Tmem97 (σ2 receptor))	SMILES	live-cell chemoproteomic competition of probe 2 (TMT MS) (Ephx1)	live-cell chemoproteomic competition of probe 2 (TMT MS) (Cav1)
–	CC(C)CCC[C@](C)(O)[C@H]1CC[C@H]2[C@@H]3CC=C4C[C@@H](O)CC[C@]4(C)[C@H]3CC[C@@]21C [compound 1, 20(S)-hydroxycholesterol]	The most competable proteins encompassed the highly enriched targets Tmem97, Ephx1, and Cav1	The most competable proteins encompassed the highly enriched targets Tmem97, Ephx1, and Cav1
50% competition at 50	CC(C)CCC[C@@](C)(O)[C@H]1CC[C@H]2[C@@H]3CC=C4C[C@@H](O)CC[C@]4(C)[C@H]3CC[C@@]21C [compound 13, 20(R)-hydroxycholesterol]	–	–
